Measurements: ChEMBL document CHEMBL1201862, “PubChem BioAssay data set” (2004)
Activity calls are given as the source filed them.

Key:
[1] = test system: Vero; experiment: cells; type: functional; details: Chlorocebus sabaeus
[2] = Fluorescence-based cell-based high throughput dose response assay for inhibitors of the interaction of nucleotide-binding oligomerization domain containing 2 (NOD2) and the receptor-interacting serine-threonine kinase 2 (RIPK2).; type: functional; details: Homo sapiens
[3] = target: Mu-type opioid receptor (Homo sapiens, UniProt P35372); type: functional, cell-based;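 also: U2OS cells with beta-arrestin recruitment to OPRM1 by beta-gal complementation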
[4] = target: 5-hydroxytryptamine receptor 2A (Mus musculus, UniProt P35363); type: functional, cell-based;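 also: CHO-K1 cells with tagged receptor and beta-arrestin; agonist potency measured as compound-induced activation of the receptor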
Sequence of 5-hydroxytryptamine receptor 2A (P35363 whole entry): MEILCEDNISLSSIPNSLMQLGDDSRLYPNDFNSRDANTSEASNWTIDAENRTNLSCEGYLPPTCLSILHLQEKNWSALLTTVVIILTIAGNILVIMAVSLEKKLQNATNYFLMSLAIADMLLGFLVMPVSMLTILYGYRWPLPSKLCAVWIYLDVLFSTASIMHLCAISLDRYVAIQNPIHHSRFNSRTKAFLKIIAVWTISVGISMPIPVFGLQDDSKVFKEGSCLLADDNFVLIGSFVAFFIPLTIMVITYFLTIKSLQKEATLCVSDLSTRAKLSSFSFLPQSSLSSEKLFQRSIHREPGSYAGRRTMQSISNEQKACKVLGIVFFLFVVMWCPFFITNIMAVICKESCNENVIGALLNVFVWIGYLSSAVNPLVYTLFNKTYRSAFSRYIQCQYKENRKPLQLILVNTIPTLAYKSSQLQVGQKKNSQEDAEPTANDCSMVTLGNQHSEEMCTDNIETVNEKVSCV

[5] = target: Beta-lactamase (Pseudomonas aeruginosa, UniProt Q79MP6);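 also: biochemical dose-response test of metallo-beta-lactamase enzyme inhibition, read out by epi-absorbance; purified recombinant IMP-1 metallo-beta-lactamase with nitrocefin as substrate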
Sequence of Beta-lactamase (Pseudomonas aeruginosa, UniProt Q79MP6) (Q79MP6 whole entry): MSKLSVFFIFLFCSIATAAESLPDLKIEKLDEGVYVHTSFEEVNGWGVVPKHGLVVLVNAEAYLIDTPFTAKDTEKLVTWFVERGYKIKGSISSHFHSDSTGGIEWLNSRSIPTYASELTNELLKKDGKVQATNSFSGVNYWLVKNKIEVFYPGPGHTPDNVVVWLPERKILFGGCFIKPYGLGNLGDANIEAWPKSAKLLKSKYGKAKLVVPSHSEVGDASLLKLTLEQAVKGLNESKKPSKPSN

[6] = target: Beta-lactamase (Salmonella choleraesuis (strain SC-B67), UniProt Q5J463)
Sequence of Beta-lactamase (Salmonella choleraesuis (strain SC-B67), UniProt Q5J463) (Q5J463 whole entry): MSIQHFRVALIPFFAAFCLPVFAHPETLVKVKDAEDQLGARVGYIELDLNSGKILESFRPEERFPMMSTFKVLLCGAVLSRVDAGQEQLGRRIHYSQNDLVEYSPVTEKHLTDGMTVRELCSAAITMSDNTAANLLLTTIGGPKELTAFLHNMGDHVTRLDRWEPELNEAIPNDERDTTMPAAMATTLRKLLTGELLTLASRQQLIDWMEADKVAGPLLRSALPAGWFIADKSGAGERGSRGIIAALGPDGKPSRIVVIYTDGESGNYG

[7] = target: T1, Insulin-degrading enzyme (Homo sapiens, UniProt P14735); experiment: activators of recombinant IDE enzyme, dose response, counter-screen for IDE activator project, biochemical, fluorescence polarization (AID 588681)
T1 sequence (P14735 whole entry): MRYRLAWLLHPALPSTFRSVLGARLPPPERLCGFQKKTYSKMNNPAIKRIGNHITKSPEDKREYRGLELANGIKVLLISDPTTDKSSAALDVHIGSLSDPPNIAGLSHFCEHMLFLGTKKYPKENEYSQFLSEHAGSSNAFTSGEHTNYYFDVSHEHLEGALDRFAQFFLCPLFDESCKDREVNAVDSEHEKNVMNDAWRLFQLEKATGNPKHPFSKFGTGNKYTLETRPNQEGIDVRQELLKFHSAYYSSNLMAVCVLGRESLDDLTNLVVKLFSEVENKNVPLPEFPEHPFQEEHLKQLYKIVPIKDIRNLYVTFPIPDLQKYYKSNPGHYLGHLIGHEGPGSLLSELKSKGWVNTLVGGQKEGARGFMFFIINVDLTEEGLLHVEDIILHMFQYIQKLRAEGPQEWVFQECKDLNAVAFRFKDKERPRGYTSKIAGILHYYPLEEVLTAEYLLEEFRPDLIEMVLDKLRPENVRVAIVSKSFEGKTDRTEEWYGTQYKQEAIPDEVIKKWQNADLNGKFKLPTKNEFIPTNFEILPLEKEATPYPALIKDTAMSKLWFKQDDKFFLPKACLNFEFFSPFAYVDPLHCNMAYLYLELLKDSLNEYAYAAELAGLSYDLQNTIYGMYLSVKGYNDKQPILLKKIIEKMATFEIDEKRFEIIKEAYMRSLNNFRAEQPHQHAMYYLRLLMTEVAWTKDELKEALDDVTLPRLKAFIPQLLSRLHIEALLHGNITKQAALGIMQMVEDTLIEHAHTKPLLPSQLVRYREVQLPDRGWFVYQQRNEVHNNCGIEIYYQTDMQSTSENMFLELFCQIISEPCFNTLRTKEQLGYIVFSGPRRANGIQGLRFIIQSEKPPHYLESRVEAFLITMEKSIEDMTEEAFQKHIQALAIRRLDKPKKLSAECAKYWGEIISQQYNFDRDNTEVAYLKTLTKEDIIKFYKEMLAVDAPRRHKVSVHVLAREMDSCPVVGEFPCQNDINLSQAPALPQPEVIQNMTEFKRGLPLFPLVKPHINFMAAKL

[8] = target: T1, Insulin-degrading enzyme; experiment: activators of endogenous IDE in HEK cells, dose response, cell-based, fluorescence polarization (AID 588439); type: functional
[9] = test system: HEK293; experiment: HEK cell cytotoxicity by LDH release, dose response, cytotoxicity control for IDE activator project, fluorescence, HEK cells (AID 588440); type: functional, cell-based; details: Homo sapiens;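 also: cytotoxicity by LDH release measuring loss of membrane integrity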
[10] = test system: HEK293; experiment: optical interference in Abeta FP readout, dose response, artefact control for IDE activator project, biochemical, fluorescence polarization (AID 588442); type: functional, cell-based; details: Homo sapiens
[11] = target: Broad substrate specificity ATP-binding cassette transporter ABCG2 (Homo sapiens, UniProt Q9UNQ0); experiment: ABCG2 efflux pump inhibitors, dose response, Ig-MXP3 cells, flow cytometry (AID 1690); type: functional
Sequence of Broad substrate specificity ATP-binding cassette transporter ABCG2 (Q9UNQ0 whole entry): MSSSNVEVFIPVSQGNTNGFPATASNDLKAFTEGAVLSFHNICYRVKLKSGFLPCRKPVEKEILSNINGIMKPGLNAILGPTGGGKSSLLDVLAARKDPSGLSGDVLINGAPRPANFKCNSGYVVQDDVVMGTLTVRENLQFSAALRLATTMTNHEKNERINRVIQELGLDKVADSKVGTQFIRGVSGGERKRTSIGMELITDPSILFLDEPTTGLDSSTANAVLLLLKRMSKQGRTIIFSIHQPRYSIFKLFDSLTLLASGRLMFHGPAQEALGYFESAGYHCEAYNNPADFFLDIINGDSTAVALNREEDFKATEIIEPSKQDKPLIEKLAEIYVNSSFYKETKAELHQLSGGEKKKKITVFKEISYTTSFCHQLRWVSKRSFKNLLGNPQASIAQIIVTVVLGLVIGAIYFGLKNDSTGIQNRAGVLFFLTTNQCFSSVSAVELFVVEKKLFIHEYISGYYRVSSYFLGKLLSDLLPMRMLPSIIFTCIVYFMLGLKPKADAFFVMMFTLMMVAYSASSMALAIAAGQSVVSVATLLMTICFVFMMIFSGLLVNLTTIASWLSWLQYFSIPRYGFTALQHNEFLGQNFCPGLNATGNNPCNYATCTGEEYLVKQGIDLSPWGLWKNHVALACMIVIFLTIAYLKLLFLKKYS

[12] = Vero cell cytotoxicity, cytotoxicity control for M. tuberculosis inhibitor project, purified and synthesized samples, set 3 (AID 504684); type: functional
[13] = AlphaScreen signal interference compounds, dose response, artefact control for ARNT-TACC3 interaction inhibitor project, biochemical, luminescence, cherry-pick (AID 651705); type: functional;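 also: AlphaScreen bead proximity signal that flags compounds interfering with the detection technology; potency reflects signal decrease which marks the compound as an assay artifact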
[14] = target: T2, RNA-binding protein pos-1 (Caenorhabditis elegans, UniProt G5EF15); experiment: inhibitors of POS-1/mex-3 RNA binding, dose response, biochemical, fluorescence polarization (AID 1964);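 also: purified POS-1 fused to maltose binding protein made in E. coli; potency of compounds blocking POS-1 binding to fluorescent RNA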
T2 sequence (G5EF15 whole entry): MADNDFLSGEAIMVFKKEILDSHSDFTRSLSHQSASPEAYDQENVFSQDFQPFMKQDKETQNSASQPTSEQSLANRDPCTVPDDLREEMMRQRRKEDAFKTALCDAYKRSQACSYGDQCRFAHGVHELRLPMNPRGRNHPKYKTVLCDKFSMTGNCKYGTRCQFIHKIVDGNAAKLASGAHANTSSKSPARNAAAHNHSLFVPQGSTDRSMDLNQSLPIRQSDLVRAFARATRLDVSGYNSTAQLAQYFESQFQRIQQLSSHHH

[15] = target: T3, Zinc finger protein mex-5 (Caenorhabditis elegans, UniProt Q9XUB2); experiment: MEX-5/TCR-2 RNA interaction inhibitors, dose response, biochemical, C. elegans, fluorescence polarization (AID 1960)
T3 sequence (Q9XUB2 whole entry): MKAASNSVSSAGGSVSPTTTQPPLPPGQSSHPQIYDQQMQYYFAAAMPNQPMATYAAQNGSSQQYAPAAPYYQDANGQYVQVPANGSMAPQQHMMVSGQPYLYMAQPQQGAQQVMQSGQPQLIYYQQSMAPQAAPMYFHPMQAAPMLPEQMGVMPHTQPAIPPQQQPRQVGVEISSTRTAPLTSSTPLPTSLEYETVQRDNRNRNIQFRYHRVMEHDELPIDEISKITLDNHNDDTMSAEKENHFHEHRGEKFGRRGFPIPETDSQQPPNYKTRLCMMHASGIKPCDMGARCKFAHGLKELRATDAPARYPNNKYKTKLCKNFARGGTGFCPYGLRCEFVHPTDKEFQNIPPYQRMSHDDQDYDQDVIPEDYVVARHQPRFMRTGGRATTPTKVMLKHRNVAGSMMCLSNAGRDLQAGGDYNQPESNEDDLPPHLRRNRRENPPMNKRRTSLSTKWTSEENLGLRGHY

[16] = target: Arf-GAP with SH3 domain, ANK repeat and PH domain-containing protein 1 (Homo sapiens, UniProt Q9ULH1); type: functional;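 also: biochemical fluorescence polarization dose–response screen measuring inhibition of ASAP1; ASAP1 GAP domain stimulating GTP hydrolysis by truncated human ARF1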
[17] = target: T4, Sentrin-specific protease 8 (Homo sapiens, UniProt Q96LD8); type: functional
T4 sequence (Q96LD8 whole entry): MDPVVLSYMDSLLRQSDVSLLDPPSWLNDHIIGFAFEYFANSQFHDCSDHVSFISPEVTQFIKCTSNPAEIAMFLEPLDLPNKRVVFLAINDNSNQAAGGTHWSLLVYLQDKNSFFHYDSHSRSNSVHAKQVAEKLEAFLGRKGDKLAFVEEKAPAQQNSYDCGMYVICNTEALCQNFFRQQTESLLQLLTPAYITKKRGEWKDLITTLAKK

[18] = target: T4, Sentrin-specific protease 8; type: functional; remark: listed apart in the source
[19] = test system: Streptococcus sp. 'group A'; experiment: growth inhibition of control SK(-) GAS strain, dose response, counter-screen for streptokinase expression inhibitor project, luminescence, kanamycin, BacTiterGlo, confirmation (AID 1900); type: functional, organism-based
[20] = target: Induced myeloid leukemia cell differentiation protein Mcl-1 (Homo sapiens, UniProt Q07820); type: functional
Sequence of Induced myeloid leukemia cell differentiation protein Mcl-1 (Q07820 whole entry): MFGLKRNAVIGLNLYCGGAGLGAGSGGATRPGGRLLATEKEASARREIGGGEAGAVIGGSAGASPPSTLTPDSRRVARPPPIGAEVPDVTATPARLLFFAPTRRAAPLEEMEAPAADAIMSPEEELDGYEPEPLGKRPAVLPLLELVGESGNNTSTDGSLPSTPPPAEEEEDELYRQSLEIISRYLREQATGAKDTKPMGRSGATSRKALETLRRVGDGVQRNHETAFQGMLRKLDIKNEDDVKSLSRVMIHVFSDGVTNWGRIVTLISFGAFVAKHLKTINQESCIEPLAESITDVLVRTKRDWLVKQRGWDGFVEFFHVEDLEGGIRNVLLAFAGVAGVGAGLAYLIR

[21] = test system: Streptococcus; experiment: Group A Streptococcus viability loss, dose response, counter-screen for streptokinase expression inhibitor project, luminescence, BacTiterGlo (AID 1915); type: functional, organism-based;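 also: potency for reduction of bacterial viability or growth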
[22] = Luminescence Cell-Based Dose Retest to Confirm Inhibitors of Cancer Stem Cells. [Related pubchem assays (depositor defined):AID2717, AID2721]; type: functional; details: Homo sapiens
[23] = target: DNA (cytosine-5)-methyltransferase 1 (Homo sapiens, UniProt P26358); experiment: DNMT1 methyltransferase inhibitors, confirmation, biochemical, fluorescent molecular beacon (AID 602386); type: functional
[24] = ADAM10 inhibitors, peptide cleavage, dose response, biochemical, QFRET (AID 743254);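 also: ADAM10 enzyme with the DM2 quenched FRET peptide as substrate; EDANS fluorescence gain as the protease cuts the substrate; inhibitor potency against ADAM10 proteolytic activity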
[25] = target: Disintegrin and metalloproteinase domain-containing protein 17 (Homo sapiens, UniProt P78536); experiment: ADAM17 protease inhibitors, dose response, counter-screen for ADAM10 exosite inhibitor project, biochemical, quenched FRET substrate (AID 743253)
Sequence of Disintegrin and metalloproteinase domain-containing protein 17 (P78536 whole entry, the tested form may be a part): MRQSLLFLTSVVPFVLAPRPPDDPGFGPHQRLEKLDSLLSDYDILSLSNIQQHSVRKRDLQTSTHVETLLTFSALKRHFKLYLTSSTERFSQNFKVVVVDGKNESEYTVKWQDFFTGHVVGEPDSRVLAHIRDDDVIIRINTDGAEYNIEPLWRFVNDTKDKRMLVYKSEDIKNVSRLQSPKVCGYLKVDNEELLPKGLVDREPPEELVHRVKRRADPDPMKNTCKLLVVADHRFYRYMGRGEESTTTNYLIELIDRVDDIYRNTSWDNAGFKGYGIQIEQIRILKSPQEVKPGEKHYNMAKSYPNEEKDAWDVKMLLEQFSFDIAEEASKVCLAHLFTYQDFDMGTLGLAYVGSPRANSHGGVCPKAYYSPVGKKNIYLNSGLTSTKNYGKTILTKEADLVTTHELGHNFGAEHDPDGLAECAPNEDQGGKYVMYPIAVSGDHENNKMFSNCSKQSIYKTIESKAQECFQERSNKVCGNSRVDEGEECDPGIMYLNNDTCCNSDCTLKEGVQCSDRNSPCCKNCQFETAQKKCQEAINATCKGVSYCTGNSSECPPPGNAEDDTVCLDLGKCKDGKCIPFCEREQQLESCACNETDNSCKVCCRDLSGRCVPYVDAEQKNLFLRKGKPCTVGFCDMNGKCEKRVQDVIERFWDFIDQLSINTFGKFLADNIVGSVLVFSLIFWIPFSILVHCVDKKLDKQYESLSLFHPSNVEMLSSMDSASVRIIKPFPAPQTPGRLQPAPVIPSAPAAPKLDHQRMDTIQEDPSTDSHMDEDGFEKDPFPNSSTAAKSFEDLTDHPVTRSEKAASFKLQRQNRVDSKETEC

[26] = target: Aryl hydrocarbon receptor (Homo sapiens, UniProt P35869); details: Potency;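 also: confirmatory quantitative high-throughput screen measuring activation of the AhR signaling pathway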
Sequence of Aryl hydrocarbon receptor (P35869 whole entry): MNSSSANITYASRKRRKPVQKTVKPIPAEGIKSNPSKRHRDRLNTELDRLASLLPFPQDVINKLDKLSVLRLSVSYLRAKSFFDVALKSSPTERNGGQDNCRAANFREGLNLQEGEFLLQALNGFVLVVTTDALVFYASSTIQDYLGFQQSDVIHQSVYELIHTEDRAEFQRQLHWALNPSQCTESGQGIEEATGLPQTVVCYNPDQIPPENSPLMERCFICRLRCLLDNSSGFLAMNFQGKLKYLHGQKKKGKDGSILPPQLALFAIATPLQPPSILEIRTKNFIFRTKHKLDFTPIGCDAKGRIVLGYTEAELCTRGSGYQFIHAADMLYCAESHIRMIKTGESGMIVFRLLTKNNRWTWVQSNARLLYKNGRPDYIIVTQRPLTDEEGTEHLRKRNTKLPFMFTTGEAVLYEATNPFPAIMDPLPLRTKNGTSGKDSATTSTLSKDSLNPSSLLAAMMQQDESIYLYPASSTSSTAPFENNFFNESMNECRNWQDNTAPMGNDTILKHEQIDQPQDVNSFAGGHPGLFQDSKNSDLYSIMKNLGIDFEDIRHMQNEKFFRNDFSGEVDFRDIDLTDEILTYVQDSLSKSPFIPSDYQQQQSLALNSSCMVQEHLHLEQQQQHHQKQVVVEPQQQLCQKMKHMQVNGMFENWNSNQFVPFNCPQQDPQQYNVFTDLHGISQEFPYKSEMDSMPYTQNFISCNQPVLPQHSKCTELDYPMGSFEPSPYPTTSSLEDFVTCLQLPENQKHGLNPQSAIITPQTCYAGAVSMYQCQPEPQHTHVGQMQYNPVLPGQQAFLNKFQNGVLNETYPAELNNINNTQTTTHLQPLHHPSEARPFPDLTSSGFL

[27] = target: Adenosylmethionine-8-amino-7-oxononanoate aminotransferase (Mycobacterium tuberculosis, UniProt P9WQ81); experiment: Mycobacterium tuberculosis BioA enzyme inhibitor Measured in Biochemical System Using Plate Reader - 2163-02_Inhibitor_Dose_CherryPick_Activity.; type: functional, Mycobacterium tuberculosis UT205
[28] = Luminescence Cell-Based Dose Confirmation HTS to Identify Activators of 5'UTR Stem-Loop Driven Alpha-Synuclein mRNA Translation in H4 Neuroglioblastoma Cells. [Related pubchem assays: 1829 (Project Summary), 1814 (Primary HTS)]; type: functional
[29] = Luminescence Cell-Based Dose Response HTS to Identify Activators of Luciferase Translation or Activity in H4 […] Cells. [Related pubchem assays: 1829 (Project Summary), 1814 (Primary HTS)]; type: functional
[30] = test system: H4; experiment: Luminescence Cell-Based Dose Response HTS to Identify Activators of 5'UTR Stem-Loop Driven Prion Protein mRNA Translation in H4 Neuroglioblastoma Cells. [Related pubchem assays: 1829 (Project Summary), 1814 (Primary HTS)]; type: functional; details: Homo sapiens
[31] = HeLa cell cytotoxicity, dose response, cytotoxicity control for MgcRacGAP inhibitor project (AID 624300); type: functional
[32] = target: T5, Rac GTPase-activating protein 1 (Homo sapiens, UniProt Q9H0H5); experiment: MgcRacGAP GTPase-activating activity inhibitors, confirmation, biochemical, ADP Hunter fluorescence, primary and confirmatory (AID 624330); type: functional
T5 sequence (Q9H0H5 whole entry): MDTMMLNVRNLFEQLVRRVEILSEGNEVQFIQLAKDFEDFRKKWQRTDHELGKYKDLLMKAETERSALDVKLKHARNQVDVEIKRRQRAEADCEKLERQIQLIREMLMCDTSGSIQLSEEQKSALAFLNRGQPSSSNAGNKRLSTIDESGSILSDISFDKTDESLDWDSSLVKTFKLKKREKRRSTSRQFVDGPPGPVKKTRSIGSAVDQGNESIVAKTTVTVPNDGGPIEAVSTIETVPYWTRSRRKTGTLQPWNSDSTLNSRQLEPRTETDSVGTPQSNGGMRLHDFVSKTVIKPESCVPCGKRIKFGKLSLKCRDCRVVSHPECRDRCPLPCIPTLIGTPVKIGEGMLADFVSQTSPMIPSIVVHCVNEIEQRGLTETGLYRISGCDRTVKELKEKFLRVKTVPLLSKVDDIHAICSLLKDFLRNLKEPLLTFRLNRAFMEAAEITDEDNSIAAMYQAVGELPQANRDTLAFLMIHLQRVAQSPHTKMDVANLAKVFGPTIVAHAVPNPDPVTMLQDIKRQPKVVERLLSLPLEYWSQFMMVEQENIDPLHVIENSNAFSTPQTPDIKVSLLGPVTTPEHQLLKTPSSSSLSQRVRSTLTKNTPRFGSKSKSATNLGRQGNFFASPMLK

[33] = target: T6, ATP-dependent translocase ABCB1 (Homo sapiens, UniProt P08183); experiment: ABCG2 efflux pump inhibitor potency, dose response, Ig-MXP3 cells, JC-1, flow cytometry, set 2 (AID 504566); type: functional; details: read-out: EC50_MICROM_;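 also: flow cytometry median green fluorescence of retained JC-1 dye; potency of efflux pump inhibition measured as rising substrate retention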
T6 sequence (P08183 whole entry): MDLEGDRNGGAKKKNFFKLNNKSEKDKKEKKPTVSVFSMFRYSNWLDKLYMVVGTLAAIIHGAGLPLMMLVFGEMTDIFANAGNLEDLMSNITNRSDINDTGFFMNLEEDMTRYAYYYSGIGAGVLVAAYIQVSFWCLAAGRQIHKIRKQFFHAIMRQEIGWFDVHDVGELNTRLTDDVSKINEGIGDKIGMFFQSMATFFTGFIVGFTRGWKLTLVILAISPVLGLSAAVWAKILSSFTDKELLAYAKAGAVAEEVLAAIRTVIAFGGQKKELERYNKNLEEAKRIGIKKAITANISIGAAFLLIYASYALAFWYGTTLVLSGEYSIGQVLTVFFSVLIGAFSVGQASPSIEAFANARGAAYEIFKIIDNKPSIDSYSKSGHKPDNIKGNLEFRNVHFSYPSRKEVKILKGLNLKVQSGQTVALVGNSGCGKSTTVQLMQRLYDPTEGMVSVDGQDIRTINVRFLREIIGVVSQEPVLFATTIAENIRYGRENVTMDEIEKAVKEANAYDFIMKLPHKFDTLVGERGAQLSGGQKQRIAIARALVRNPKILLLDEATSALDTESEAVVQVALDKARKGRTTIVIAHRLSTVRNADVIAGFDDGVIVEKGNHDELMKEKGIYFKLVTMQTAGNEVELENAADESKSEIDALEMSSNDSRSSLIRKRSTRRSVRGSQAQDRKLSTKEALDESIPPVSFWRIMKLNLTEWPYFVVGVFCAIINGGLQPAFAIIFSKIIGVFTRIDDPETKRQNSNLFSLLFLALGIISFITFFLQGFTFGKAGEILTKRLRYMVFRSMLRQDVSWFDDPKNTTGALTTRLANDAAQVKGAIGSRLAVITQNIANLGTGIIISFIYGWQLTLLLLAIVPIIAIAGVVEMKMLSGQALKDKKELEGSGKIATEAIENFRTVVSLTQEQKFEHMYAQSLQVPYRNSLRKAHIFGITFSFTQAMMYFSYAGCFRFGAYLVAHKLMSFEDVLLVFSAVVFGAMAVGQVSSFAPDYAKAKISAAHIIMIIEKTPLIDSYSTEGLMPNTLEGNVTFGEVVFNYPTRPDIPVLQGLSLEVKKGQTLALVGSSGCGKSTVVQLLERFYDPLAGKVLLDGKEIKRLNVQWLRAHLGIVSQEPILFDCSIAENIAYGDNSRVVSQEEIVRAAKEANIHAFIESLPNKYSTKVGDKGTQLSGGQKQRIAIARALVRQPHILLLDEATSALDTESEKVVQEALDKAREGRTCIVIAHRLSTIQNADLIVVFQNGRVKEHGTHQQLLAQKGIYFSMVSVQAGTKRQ

[34] = target: T6, ATP-dependent translocase ABCB1; experiment: ABCB1 efflux inhibitor potency, dose response, Jurkat-DNR cells, JC-1, flow cytometry, set 2 (AID 504569); type: functional; details: read-out: EC50_MICROM_;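 also: potency of pump inhibitors that raise cellular JC-1 green fluorescence up to the nicardipine level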
[35] = target: T7, Low molecular weight phosphotyrosine protein phosphatase (Homo sapiens, UniProt P24666); type: functional; details: read-out: IC50_Mean
T7 sequence (P24666 whole entry): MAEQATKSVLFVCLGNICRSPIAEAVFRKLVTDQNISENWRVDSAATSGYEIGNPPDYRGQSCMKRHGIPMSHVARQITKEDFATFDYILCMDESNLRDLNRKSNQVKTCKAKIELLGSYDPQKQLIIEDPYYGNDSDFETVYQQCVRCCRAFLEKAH

[36] = target: T7, Low molecular weight phosphotyrosine protein phosphatase; type: functional; details: read-out: IC50_Mean; remark: listed apart in the source

O=C1Nc2ccccc2/C1=C\C(=O)c1ccccc1
CC50 [1]: > 25 µM (active)
IC50 [2]: 5 µM (active)

O=C(c1ccco1)N1CCN(CC2CC3C=CC2C3)CC1 (stereo unspecified)
EC50 [3]: 92.4 µM (inactive)
EC50 [4]: 2.96 µM (active)

CCCCN(C)C1=CC2=CC(=C(C#N)C#N)CCC2CC1 (stereo unspecified)
IC50 [5]: 5.07 µM (active)
IC50 [6]: 1.47 µM (active)
EC50 [7]: > 54.7 µM (inactive)
EC50 [8]: > 54.7 µM (inactive)
IC50 [9]: > 89.2 µM (inactive)
EC50 [10]: 1.55 µM (active)
EC50 [11]: 4.42 µM (active)

O=C(CSc1nccc(O)n1)Nc1ccc(Oc2ccccc2)cc1
CC50 [12]: > 100 µM (active)

O=C(COc1ccccc1)Nc1nnc(-c2ccco2)o1
AC50 [13]: 95 µM (active)

Cc1cc(N/C=C2/C(=O)N(c3ccc4c(c3)OCO4)C(=O)c3ccccc32)ccn1
EC50 [14]: 27.5 µM (active)
EC50 [15]: 188 µM (inconclusive)
IC50 [16]: 22.1 µM (inactive)

CCOc1cc(C(c2c(C)[nH][nH]c2=O)c2c(C)[nH][nH]c2=O)ccc1OS(=O)(=O)c1ccccc1
IC50 [17]: 20.9 µM (active)
IC50 [18]: 33.2 µM (active)

Cc1ccc(C2C(/C=C3/SC(=S)NC3=O)=C(c3cccs3)Oc3ccccc32)cc1 (stereo unspecified)
EC50 [19]: 0.649 µM (active)
IC50 [20]: 3.63 µM (active)
EC50 [21]: 1.11 µM (active)
AC50 [22]: 0.874 µM (active)
IC50 [23]: 3.74 µM (active)
IC50 [24]: 16.7 µM (inactive)
IC50 [25]: 33.7 µM (inactive)

O=C=Nc1ccc(Cl)c(Cl)c1
AC50 [26]: 56.2 µM (inconclusive)

CC(=O)c1ccc(NC(=O)COC(=O)Cc2ccsc2)cc1
AC50 [27]: 6.97 µM (active)

COc1ccc(/C=N/Nc2ncnc3sc4c(c23)CCCC4)cc1O
EC50 [28]: 13.4 µM (active)
EC50 [29]: 6.72 µM (active)
EC50 [30]: 8.38 µM (active)
CC50 [31]: 70.4 µM (active)
IC50 [32]: 56.1 µM (active)

O=C(c1ccoc1)N1CCN(c2cc(-c3ccccc3F)nc3cc(-c4cccc(Cl)c4)nn23)CC1
EC50 [33]: 1.59 µM (active)
EC50 [34]: 5.75 µM (active)

CCc1nc(N)nc(N)c1-c1ccc(Cl)c(N=[N+]=[N-])c1
IC50 [35]: 24.2 µM (inactive)
IC50 [36]: 14.3 µM (active)
